“Also recorded” adds a separate entry of the source. Read-outs that look alike come from different tables or passages of the source.
What was measured:
[1] = system: acetylated histone H3; assay: Acetylated histone H3 protein levels in amygdaloid structures of ethanol-withdrawn rats (gold-immunolabeling); format: in vivo; details: for histone H3-K9 acetylation: SAHA 50 mg/kg intraperitoneally, FIG. 3
Experimental: (§1) The effect of HDAC inhibition on acetylated histone H3, CBP, and Sir-2 (HDAC III) level in ethanol-withdrawn SD rats after chronic ethanol exposure was assayed using trichostatin A (TSA). SD rats were fed control or ethanol liquid diet, and ethanol-fed rats were withdrawn for 24 hours. Ethanol-withdrawn and control rats were treated with TSA or vehicle, and protein levels were measured in amygdaloid structures by gold-immunolabeling. In the CeA and MeA, but not in the BLA, ethanol withdrawal produced significant reductions in protein levels of acetylated histone H3 and CBP-HAT, and produced an increase in protein levels of Sir-2. […] Thus, histone acetylation is normalized by TSA treatment due to inhibition of HDAC activity.
In the CeA and MeA, but not in the BLA, ethanol withdrawal produced significant reductions in protein levels of acetylated histone H3-K9.

[2] = system: ethanol-withdrawn SD rats; assay: Light/dark box exploration test of anxiety-like behaviors in ethanol-withdrawn rats; format: in vivo
[3] = system: HDAC activity in the amygdala; assay: HDAC activity in the amygdala of ethanol-withdrawn rats; format: in vivo
Experimental: The effect on HDAC activity in the amygdala of ethanol-withdrawn SD rats after chronic ethanol exposure was measured. SD rats were fed with control or ethanol liquid diet, and ethanol-fed rats were withdrawn for 24 hours. Ethanol-withdrawn and control rats were treated with TSA or vehicle two hours before measuring HDAC activity. Ethanol withdrawal after chronic ethanol exposure produced an increase in HDAC activity in the amygdala of rats.
The effect on HDAC activity in the amygdala of ethanol-withdrawn SD rats after chronic ethanol exposure was measured. SD rats were fed with control or ethanol liquid diet, and ethanol-fed rats were withdrawn for 24 hours. […] Two hours after injections, brains were collected to measure HDAC activity. The nuclear and cytosolic fractions of amygdala were prepared and HDAC activities were measured using an HDAC ELISA kit. Ethanol withdrawal after chronic ethanol exposure produced an increase in nuclear, but not cytosolic, HDAC activity in the amygdala of rats.

[4] = system: ethanol-withdrawn SD rats; assay: Elevated-plus maze (EPM) test of anxiety-like behaviors in ethanol-withdrawn rats; format: in vivo
Experimental: The effect of HDAC inhibition on anxiety-like behaviors of ethanol-withdrawn SD rats after chronic ethanol exposure was assayed using the class I and class II HDAC inhibitor trichostatin A (TSA). SD rats were fed with control or ethanol liquid diet, and ethanol-fed rats were withdrawn for 24 hours as described previously (Pandey et al, Alcohol Clin. Exp. Res. 27:396-409, 2003). Ethanol-withdrawn and control rats were treated with TSA or vehicle (1:5 dilution of DMSO with phosphate-buffered saline) two hours before measuring anxiety-like behaviors using the elevated-plus maze (EPM) test. The EPM is a cross-shaped elevated apparatus consisting of two open arms and two closed arms arranged directly opposite each other and connected to a central platform. To measure anxiety-like behaviors, a test rat was habituated for five-minutes in the test room and then placed on the central platform facing an open arm. The number of entries to each type of arm over a five-minute period was observed and recorded. EPM test results were reported as the mean±SEM of the percent of open-arm entries and the percent of time spent on the open arms. These collectively are referred to as open-arm activity. The general activity of each rat was measured by calculating the sum of open- and closed-arm entries. In the EPM test, ethanol withdrawal after chronic ethanol exposure produced increased anxiety-like behaviors as measured by a reduction in open-arm activities. […]
The effect of Sir-2 inhibition on anxiety-like behaviors in ethanol-withdrawn SD rats after chronic ethanol exposure was assayed by central amygdaloid infusion of the Sir-2 inhibitor, sirtinol. […] Sirtinol (0.5 μl of 25 μM sirtinol) or vehicle (0.5 μl of 0.3% DMSO diluted with artificial CSF) was infused into the CeA of ethanol-withdrawn and control rats, and anxiety was measured after two hours. Anxiety-like behaviors in rats were then measured in the EPM test. […]

[5] = system: Limk1; assay: Limk1 protein levels in amygdaloid structures of ethanol-withdrawn rats (gold-immunolabeling); format: in vivo; details: SAHA 50 mg/kg intraperitoneally, decrease seen in CeA and MeA, FIG. 5
Experimental: The effect on protein levels of Limk1 in the amygdala of ethanol-withdrawn SD rats after chronic ethanol exposure was measured. SD rats were fed with control or ethanol liquid diet, and ethanol-fed rats were withdrawn for 24 hours. […] Brains were collected after perfusion for Limk1 protein level measurement. Protein levels were measured in amygdaloid structures by gold-immunolabeling. Ethanol withdrawal, but not ethanol treatment, produced significant decreases in protein levels of Limk1 in the CeA and MeA, but not in the BLA.

[6] = system: alcohol-preferring (P) rats; assay: Two-bottle voluntary alcohol intake in alcohol-preferring rats; format: in vivo; details: TSA 2 mg/kg intraperitoneal daily, last three days of 9% alcohol drinking
Experimental: (§2) The effect of HDAC inhibition on the alcohol consumption of alcohol-preferring (P) and non-preferring (NP) rats was assayed. Selective breeding has produced the P and NP rat lines with high and low alcohol preference, respectively (Li T. K, Lumeng L, Doolittle D P, Behav. Genet. 23:163-170, 1993; McKinzie D L, Nowak K L, Murphy J M, Li T K, Lumeng L, McBride W J, Alcohol Clin. Exp. Res. 22:1584-1590, 1998). P and NP rats were habituated to drink water equally from two bottles. One bottle was then replaced with 7% ethanol for the first three days and 9% ethanol for the next seven days. During the last three days of 9% alcohol drinking, rats were treated with TSA daily (2 mg/kg intraperitoneal injection). […] As a result of the large reduction in voluntary alcohol consumption by the alcohol-preferring animal model when treated with an HDAC inhibitor, it is expected that HDAC inhibitors also prevent the development of alcohol dependence.

[7] = system: non-preferring (NP) rats; assay: Two-bottle voluntary alcohol intake in non-preferring rats; format: in vivo; details: TSA 2 mg/kg intraperitoneal daily, last three days of 9% alcohol drinking
Experimental: as §2

[8] = system: class I and class II HDACs; details: Yoshida et al 1990; cited from earlier work
[9] = system: NPY; assay: NPY mRNA and protein levels in amygdaloid structures of ethanol-withdrawn rats; format: in vivo; details: TSA, reduction seen in CeA and MeA
Experimental: The effect of HDAC inhibition on NPY mRNA and protein levels in ethanol-withdrawn SD rats after chronic ethanol exposure was also assayed using trichostatin A (TSA). SD rats were fed control or ethanol liquid diet, and ethanol-fed rats were withdrawn for 24 hours. Ethanol-withdrawn and control rats were treated with TSA or vehicle, and mRNA and protein levels were measured in amygdaloid structures. In the CeA and MeA, but not in the BLA, ethanol withdrawal produced significant reductions in both mRNA and protein levels of NPY. […] Thus, NPY expression is also normalized by TSA treatment during ethanol withdrawal after chronic ethanol exposure.

[10] = system: CBP; assay: CBP protein levels in amygdaloid structures of ethanol-withdrawn rats (gold-immunolabeling); format: in vivo; details: TSA
Experimental: as §1

[11] = system: Sir-2 (HDAC III); assay: Sir-2 protein levels in amygdaloid structures of ethanol-withdrawn rats (gold-immunolabeling); format: in vivo; details: TSA
Experimental: as §1

[12] = system: CBP; details: acute ethanol vs n-saline
Experimental: (§3) The protein levels of acetylated histone H3, acetylated histone H4, and CBP in the CeA structures of n-saline- or acute ethanol-treated rats were measured by immunohistochemistry.

[13] = system: acetylated histone H3; details: acute ethanol vs n-saline
Experimental: as §3

[14] = system: acetylated histone H4; details: acute ethanol vs n-saline
Experimental: as §3

[15] = system: HDACs in the amygdala; details: ethanol 1 g/kg intraperitoneal injection, after one hour
Experimental: (§4) The effect of acute ethanol exposure on HDAC activity, histone acetylation level, and CBP level was measured in Sprague-Dawley (SD) rats. Rats were injected with ethanol (1 g/kg intraperitoneal injection) or n-saline, and after one hour, anxiolytic responses were measured. […] The amygdala was then dissected out, and HDAC activity was measured.

[16] = system: Sprague-Dawley (SD) rats; details: ethanol 1 g/kg intraperitoneal injection vs n-saline, after one hour
Experimental: as §4

[17] = target: p300 HAT (Homo sapiens, UniProt Q09472); details: Balasubramanyam et al 2003; cited from earlier work
[18] = system: HDAC; details: Balasubramanyam et al 2003; cited from earlier work
[19] = system: Sir-2; details: Landry et al 2000; Blander et al 2004; cited from earlier work
[20] = system: HAT; details: Mantelingu et al 2007; cited from earlier work

Chain of p300 HAT (Q09472 whole entry, species assumed): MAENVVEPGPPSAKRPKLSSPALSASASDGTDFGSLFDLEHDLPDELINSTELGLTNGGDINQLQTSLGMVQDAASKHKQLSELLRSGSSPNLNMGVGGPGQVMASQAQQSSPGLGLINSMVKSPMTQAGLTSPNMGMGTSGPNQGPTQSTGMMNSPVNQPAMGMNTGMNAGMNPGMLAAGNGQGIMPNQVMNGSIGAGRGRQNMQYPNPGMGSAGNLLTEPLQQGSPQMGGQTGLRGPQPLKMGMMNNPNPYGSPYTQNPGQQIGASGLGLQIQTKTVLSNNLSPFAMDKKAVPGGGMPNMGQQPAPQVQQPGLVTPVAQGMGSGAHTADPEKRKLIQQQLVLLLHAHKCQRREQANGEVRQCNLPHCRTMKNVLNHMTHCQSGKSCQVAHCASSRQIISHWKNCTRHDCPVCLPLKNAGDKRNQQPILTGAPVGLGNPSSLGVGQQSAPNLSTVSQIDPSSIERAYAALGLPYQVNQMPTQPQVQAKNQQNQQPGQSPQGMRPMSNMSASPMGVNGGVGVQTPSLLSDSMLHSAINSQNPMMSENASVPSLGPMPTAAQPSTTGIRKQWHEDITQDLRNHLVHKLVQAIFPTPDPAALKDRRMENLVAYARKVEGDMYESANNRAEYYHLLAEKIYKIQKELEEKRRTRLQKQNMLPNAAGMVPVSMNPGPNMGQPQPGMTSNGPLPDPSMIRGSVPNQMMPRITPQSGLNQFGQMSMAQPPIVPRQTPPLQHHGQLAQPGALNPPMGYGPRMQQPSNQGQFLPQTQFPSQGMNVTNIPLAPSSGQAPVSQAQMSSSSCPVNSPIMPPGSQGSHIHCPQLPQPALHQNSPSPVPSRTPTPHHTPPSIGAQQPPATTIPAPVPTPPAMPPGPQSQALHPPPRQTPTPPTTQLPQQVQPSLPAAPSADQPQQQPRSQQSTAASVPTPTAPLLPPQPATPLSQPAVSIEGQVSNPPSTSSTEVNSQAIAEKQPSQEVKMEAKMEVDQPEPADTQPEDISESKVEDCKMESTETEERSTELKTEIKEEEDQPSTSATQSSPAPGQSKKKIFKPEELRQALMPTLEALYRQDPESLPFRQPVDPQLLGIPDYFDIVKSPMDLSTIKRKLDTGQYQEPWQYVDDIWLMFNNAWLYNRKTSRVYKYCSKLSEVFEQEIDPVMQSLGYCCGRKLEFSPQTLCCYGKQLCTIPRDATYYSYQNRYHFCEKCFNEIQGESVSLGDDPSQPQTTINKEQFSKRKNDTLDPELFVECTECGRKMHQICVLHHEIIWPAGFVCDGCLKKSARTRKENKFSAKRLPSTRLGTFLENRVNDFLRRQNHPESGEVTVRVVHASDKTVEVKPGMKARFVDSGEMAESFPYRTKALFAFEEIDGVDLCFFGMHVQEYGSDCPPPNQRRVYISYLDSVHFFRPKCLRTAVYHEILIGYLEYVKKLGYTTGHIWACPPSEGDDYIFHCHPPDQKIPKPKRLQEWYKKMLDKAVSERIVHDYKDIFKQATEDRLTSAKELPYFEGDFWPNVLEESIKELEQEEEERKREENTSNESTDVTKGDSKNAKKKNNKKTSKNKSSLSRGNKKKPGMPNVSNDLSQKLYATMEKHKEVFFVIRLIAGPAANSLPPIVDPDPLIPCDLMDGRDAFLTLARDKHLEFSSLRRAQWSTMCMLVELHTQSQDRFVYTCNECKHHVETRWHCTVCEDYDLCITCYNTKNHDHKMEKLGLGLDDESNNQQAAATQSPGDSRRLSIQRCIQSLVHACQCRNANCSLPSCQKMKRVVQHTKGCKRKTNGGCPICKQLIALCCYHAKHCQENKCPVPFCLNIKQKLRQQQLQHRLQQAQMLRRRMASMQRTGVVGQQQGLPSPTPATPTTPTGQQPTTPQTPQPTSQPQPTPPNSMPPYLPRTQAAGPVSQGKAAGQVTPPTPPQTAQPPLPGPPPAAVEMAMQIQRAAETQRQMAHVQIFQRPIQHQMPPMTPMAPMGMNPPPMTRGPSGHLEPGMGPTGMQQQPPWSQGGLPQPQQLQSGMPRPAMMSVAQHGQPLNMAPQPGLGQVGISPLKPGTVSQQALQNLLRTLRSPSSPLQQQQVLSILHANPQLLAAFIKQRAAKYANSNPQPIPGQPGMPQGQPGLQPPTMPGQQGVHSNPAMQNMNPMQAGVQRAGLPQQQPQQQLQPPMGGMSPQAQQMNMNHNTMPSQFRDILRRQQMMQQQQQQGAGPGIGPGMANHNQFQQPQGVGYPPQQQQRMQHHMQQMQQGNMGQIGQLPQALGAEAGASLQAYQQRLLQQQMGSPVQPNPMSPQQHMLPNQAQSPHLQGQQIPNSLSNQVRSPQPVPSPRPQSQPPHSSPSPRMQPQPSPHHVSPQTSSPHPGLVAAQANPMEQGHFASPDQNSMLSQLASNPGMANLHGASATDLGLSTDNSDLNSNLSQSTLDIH

O=C(CCCCCCC(=O)Nc1ccccc1)NO [SAHA, suberoylanilide hydroxamic acid]
histone H3-K9 acetylation ([1]; BLA): had no effects on histone H3-K9 acetylation
histone H3-K9 acetylation ([1]; CeA and MeA): corrected the deficits in histone H3-K9 acetylation
anxiety-like behaviors (time spent in the light box) ([2]; SAHA 50 mg/kg intraperitoneally, 24 hours ethanol withdrawal, FIG. 1A): significantly reduced these anxiety-like behaviors
withdrawal-induced increase in nuclear HDAC activity in the amygdala ([3]; SAHA 50 mg/kg intraperitoneally, two hours after injection, nuclear fraction, HDAC ELISA kit, FIG. 2): attenuated this increase in nuclear HDAC activity
anxiety-like behaviors (open-arm activity) in EPM test ([4]; SAHA 50 mg/kg intraperitoneally, 24 hours ethanol withdrawal, FIG. 1B): prevented these anxiety-like behaviors
Limk1 protein levels [5]: normalized Limk1 levels

CC(/C=C/C(=O)NO)=C\[C@@H](C)C(=O)c1ccc(N(C)C)cc1 [TSA, trichostatin A]
acetylated histone H3 levels ([1]; TSA, reduction seen in CeA and MeA): rescued acetylated histone H3 levels; also recorded: normalized the reduction in acetylation of histone H3
alcohol intake [6]: significantly attenuated the alcohol intake
alcohol intake [7]: not in low alcohol-drinking NP rats
inhibition of class I and class II HDACs [8]: potently inhibits class I and class II HDACs
NPY mRNA and protein levels [9]: restored NPY levels to normal; also recorded: normalized the reduction in NPY expression
anxiety-like behaviors (time spent in the light box) ([2]; TSA, 24 hours ethanol withdrawal after chronic ethanol): significantly reduced these anxiety-like behaviors
withdrawal-induced increase in HDAC activity in the amygdala ([3]; TSA two hours before measurement, 24 hours ethanol withdrawal): completely prevented this increase in HDAC activity; also recorded: normalized the increase in HDAC activity
anxiety-like behaviors (open-arm activity) in EPM test ([4]; TSA two hours before test, 24 hours ethanol withdrawal after chronic ethanol): restored these anxiety-like behaviors to normal levels; also recorded: prevented the development of anxiety-like behaviors
CBP levels [10]: did not modulate CBP and Sir-2 levels
Sir-2 levels [11]: did not modulate CBP and Sir-2 levels

CCO [ethanol]
protein level of CBP ([12]; BLA): not in basolateral amygdaloid (BLA) structures
protein level of CBP ([12]; CeA): increased protein levels
protein level of CBP ([12]; MeA): increased protein levels
protein level of acetylated histone H3 ([13]; BLA): not in basolateral amygdaloid (BLA) structures
protein level of acetylated histone H3 ([13]; CeA): increased protein levels
protein level of acetylated histone H3 ([13]; MeA): increased protein levels
protein level of acetylated histone H4 ([14]; CeA): increased protein levels
protein level of acetylated histone H4 ([14]; MeA): increased protein levels
inhibition of HDAC activity in the amygdala compared to n-saline-treated rats [15]: 36%
anxiolytic responses [16]: anxiolytic effects

CCCCCCCCCCCCCCCc1cccc(OCC)c1C(=O)Nc1ccc(Cl)c(C(F)(F)F)c1 [CTPB, N-(4-chloro-3-trifluoromethyl-phenyl)-2-ethoxy-6-pentadecyl-benzamide]
p300 HAT activity [17]: activate p300 HAT activity
HDAC activity [18]: without affecting HDAC activity

CC(NC(=O)c1ccccc1/N=C/c1c(O)ccc2ccccc12)c1ccccc1 (stereo not shown) [sirtinol]
anxiety-like behaviors (open-arm activity) in EPM test ([4]; 0.5 μl of 25 μM sirtinol infused into the CeA, two hours before test, 24 hours ethanol withdrawal): development of these anxiety-like behaviors was prevented
inhibition of Sir-2 [19]: specific inhibitor of Sir-2

CCOc1ccccc1C(=O)Nc1ccc(Cl)c(C(F)(F)F)c1 [CTB, N-(4-chloro-3-trifluoromethyl-phenyl)-2-ethoxy-benzamide]
HAT activation [20]: HAT activators
